Test results reported in patent publication US20090104167A1, “Prophylactic/Ameliorating Agent for Menopausal Disorder and Functional Beverage/Food” (Calpis Co., Ltd., priority 2005, published 2009).

How the values were obtained:
[1] = Lignan-metabolizing ability of microorganisms: conversion of pinoresinol to secoisolariciresinol (HPLC); design: key to pinoresinol to secoisolariciresinol: o indicates that the lignan was converted in 50% or more; x indicates that most of the lignan was not converted; conditions: for pinoresinol to secoisolariciresinol: lignan 0.5 mM in MRS or GAM medium, culture at 37° C., HPLC
Procedure: Lignan-metabolizing abilities of various types of microorganisms were evaluated. The various microorganisms shown in the following Tables 1 to 3 were pre-cultured in MRS medium or GAM medium at 37° C. for 20 to 24 hours, and inoculated at 1 to 3% to 10 ml of MRS medium or GAM medium Du zhong lignan (pinoresinol and medioresinol) was added at a final concentration of 0.5 mM in the medium, and continued to culture at 37° C. Samples were taken at regular intervals and assayed by HPLC to monitor the conversion of lignan to secoisolariciresinol.

[2] = biological target: T1, human estrogen receptor α (Homo sapiens, UniProt P03372); assay: Inhibition of [3H]estradiol binding to estrogen receptor α; conditions: for binding inhibition rate to estrogen receptor α, inhibition rate (%): One millimolar test sample, 0.5 nM tritium-labeled estradiol, 25° C., 2 hours, pH 7.4
T1 sequence (P03372 1-595): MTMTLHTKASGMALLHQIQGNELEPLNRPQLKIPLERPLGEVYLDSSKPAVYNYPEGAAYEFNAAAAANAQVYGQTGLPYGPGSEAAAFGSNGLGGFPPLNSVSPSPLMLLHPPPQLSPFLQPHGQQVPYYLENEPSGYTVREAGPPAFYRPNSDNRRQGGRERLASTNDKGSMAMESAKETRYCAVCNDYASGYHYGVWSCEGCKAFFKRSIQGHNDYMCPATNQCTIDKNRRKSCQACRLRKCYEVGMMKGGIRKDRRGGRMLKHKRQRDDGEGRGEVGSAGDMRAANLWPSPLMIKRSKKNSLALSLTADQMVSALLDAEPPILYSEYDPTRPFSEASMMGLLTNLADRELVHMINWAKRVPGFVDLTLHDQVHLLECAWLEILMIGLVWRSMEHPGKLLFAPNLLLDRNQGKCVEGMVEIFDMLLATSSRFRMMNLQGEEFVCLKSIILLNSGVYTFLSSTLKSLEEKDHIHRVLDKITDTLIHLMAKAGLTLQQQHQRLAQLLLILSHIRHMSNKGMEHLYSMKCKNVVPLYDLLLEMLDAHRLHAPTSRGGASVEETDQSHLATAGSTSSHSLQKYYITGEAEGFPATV
Procedure: (§1) One millimolar of a test sample (pinoresinol diglycoside, pinoresinol and secoisolariciresinol) and 0.5 nM of tritium-labeled estradiol were reacted in 10 mM of tris buffer at pH 7.4 (with 0.1% BSA, 10% Glycerol, 1 mM DTT) containing a human estrogen receptor α or β at 25° C. for 2 hours. After completion of the reaction, the receptor was collected and washed to measure the amount of the tritium-labeled estradiol bound to the receptor according to a conventional method. The binding level of [^3H] Estradiol in the presence of a lignan or a metabolic intermediate was calculated with the binding of 0.5 nM of [^3H] Estradiol to the receptor as 100%, which was subtracted from 100 to define a binding inhibition rate.

[3] = biological target: human estrogen receptor β (Homo sapiens, UniProt Q92731); assay: Inhibition of [3H]estradiol binding to estrogen receptor β; conditions: One millimolar test sample, 0.5 nM tritium-labeled estradiol, 25° C., 2 hours, pH 7.4
Procedure: as §1

Sequence of human estrogen receptor β (Q92731 whole entry): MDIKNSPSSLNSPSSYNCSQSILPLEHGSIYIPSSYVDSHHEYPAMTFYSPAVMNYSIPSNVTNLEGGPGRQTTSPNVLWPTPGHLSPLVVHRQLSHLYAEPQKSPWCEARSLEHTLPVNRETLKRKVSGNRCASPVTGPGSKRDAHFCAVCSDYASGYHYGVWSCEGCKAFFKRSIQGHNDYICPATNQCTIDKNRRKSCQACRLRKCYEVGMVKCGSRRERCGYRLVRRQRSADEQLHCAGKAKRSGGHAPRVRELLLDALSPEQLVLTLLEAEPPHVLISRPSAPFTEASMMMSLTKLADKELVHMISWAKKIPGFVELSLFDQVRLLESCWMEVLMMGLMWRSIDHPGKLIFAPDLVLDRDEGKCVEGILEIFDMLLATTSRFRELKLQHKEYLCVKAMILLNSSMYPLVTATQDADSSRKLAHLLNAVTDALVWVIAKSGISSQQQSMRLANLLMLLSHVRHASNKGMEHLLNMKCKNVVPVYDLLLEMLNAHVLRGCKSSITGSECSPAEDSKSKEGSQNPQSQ

| Molecule | pinoresinol to secoisolariciresinol [1] | binding inhibition rate to estrogen receptor α, inhibition rate (%) [2] [%] | binding inhibition rate to estrogen receptor β, inhibition rate (%) [3] [%] | other results |
| --- | --- | --- | --- | --- |
| Bifidobacterium | x |  |  |  |
| Lactobacillus plantarum | x |  |  |  |
| COc1cc([C@H]2OC[C@H]3[C@@H]2CO[C@@H]3c2ccc(O[C@@H]3O[C@H](CO)[C@@H](O)[C@H](O)[C@H]3O)c(OC)c2)ccc1O[C@@H]1O[C@H](CO)[C@@H](O)[C@H](O)[C@H]1O [pinoresinol diglycoside] |  | 4 | 5 |  |
| Lactobacillus reuteri | x |  |  |  |
| Lactobacillus acidophilus | ∘ |  |  | ability to produce secoisolariciresinol from pinoresinol (in words) ([1]; summary of Tables 1 to 3): capable of producing secoisolariciresinol from pinoresinol |
| COc1cc(C[C@@H](CO)[C@H](CO)Cc2ccc(O)c(OC)c2)ccc1O [secoisolariciresinol] |  | 43 | 52 | binding inhibition rate to an estrogen receptor relative to pinoresinol diglycoside ([2]; estrogen receptor subtype not specified, versus pinoresinol diglycoside): ten times higher |
| pinoresinol |  | 23 | 30 |  |
